# Reference: US20240425452A1
# Where “and” joins values, the source holds several entries; their conditions need not be identical. Identical values can stand only once. Like-named read-outs stand apart in the source and are kept apart here.
# Legend:
# [1] = Interactions with water molecules, thermogravimetric analysis (TGA); assay type: physicochemical; settings: TGA 30-200° C. at 10° C./min, 1 mM in water with 1% DMSO
# Description: TGA was performed on a Perkin Elmer TGA 800 using Pyris software. A temperature scan from 30° C. to 200° C. at a rate of 10° C./min was performed. The isomers were analyzed at a concentration of 1 mM in water (containing 1% DMSO).
# [2] = Octanol:water partition coefficient (Log P), HPLC
# Description: The octanol:water partition coefficients of the trans and cis isomers of 3-(2-bromo-3,4-dihydroxy-phenyl)-N-(3,4,5-trihydroxy-benzyl)-thioacrylamide were determined.
# A solution of 10 mM of the trans isomer in DMSO was prepared and diluted 10-fold in water. A solution of the cis isomer was obtained by exposing the trans isomer solution (5 mL) to 125 lux light at 4° C. for 9 hours resulting in a solution containing more than 90% of the cis isomer. Partitioning in octanol:water was performed as follows: 20 μL of each solution were added to 80 μL of water (saturated by octanol, containing 1 mM of ascorbic acid) and 100 μl of octanol (saturated by water). The obtained solutions were stirred for 1 min and left for incubation at RT for 24 hours. Then, each phase was analyzed by HPLC. The concentration (C) of each isomer was determined using a calibration curve, based on the injection volume of each phase and a response factor of 1 (previously measured).
# For all said analyses a volume of 13 μL was injected to the HPLC.
# [3] = Stability in biorelevant fluids (FaSSGF, FaSSIF), HPLC; settings: for Percent of isomer in FaSSGF / Percent of isomer in FaSSIF: 250 μM
# Description: The stability of the trans and cis isomers of 3-(2-bromo-3,4-dihydroxy-phenyl)-N-(3,4,5-trihydroxy-benzyl)-thioacrylamide in biorelevant fluids was assessed, including Fasted State Simulated Intestinal Fluid (FaSSIF) and Fasted State Simulated Gastric Fluid (FaSSGF).
# A solution containing the cis isomer of 3-(2-bromo-3,4-dihydroxy-phenyl)-N-(3,4,5-trihydroxy-benzyl)-thioacrylamide was prepared by exposing a 5 mL solution of the 100% trans isomer at a concentration of 1 mM to 125 lux light for 9 hours at 4° C.
# FaSSIF and FaSSGF solutions were prepared according to the manufacturer's instructions.
# The cis and trans isomers of 3-(2-bromo-3,4-dihydroxy-phenyl)-N-(3,4,5-trihydroxy-benzyl)-thioacrylamide were diluted in either FaSSIF or FaSSGF solutions to a final concentration of 250 μM. Samples were taken at time 0 and after 4 hours. Samples were frozen in liquid nitrogen, and stored frozen until analysis.
# [4] = Exposure of trans isomer to artificial daylight, 1H NMR analysis; assay type: physicochemical; settings: 10% d6-DMSO in buffer pH 7.4, artificial daylight 5 hr
# Description: A sample of substantially pure trans isomer of 3-(2-bromo-3,4-dihydroxy-phenyl)-N-(3,4,5-trihydroxy-benzyl)-thioacrylamide in 10% d6-DMSO in a buffer (pH 7.4) was irradiated with an artificial daylight for 5 hr. Thereafter, the solution was characterized by ^1H-NMR analyses.
# Thus, differentiating between the two isomers can be performed using ^1H-NMR analysis.
# [5] = Exposure of trans isomer in HPCD solution to room lighting, UV analysis; assay type: physicochemical; settings: 0.5 mg/mL in 0.025% phosphoric acid (diluted from HPCD solution), clear glass vials, room lighting several days
# [6] = assay type: physicochemical; settings: 1 mM, 125 lux light
# Text: An additional assessment of the stability of the trans isomer upon exposure to artificial daylight was made.
# [7] = simulated intestinal fluid, 0 h
# [8] = simulated intestinal fluid, 0.5 h
compound,measurement,setting,value
"Oc1cc(CNC(=S)C=Cc2ccc(O)c(O)c2Br)cc(O)c1O (single isomer, unassigned; isomer 3) [cis isomer]",Maximum evaporation rate (bound water),[1],12%/min
same,Maximum evaporation rate (free water),[1],37 %/min
same,Temperature of mid evaporation (free water),[1],58 °C
same,Maximum evaporation rate (free water),[1]; listed as Cis isomer,37%/min
same,logP at 24 h,[2],-0.18
same,reduction of concentration in FaSSGF,"[3]; simulated gastric fluid, 0 to 4 h",~16%
same,Percent of isomer in FaSSGF,"[3]; simulated gastric fluid, 0 h",89.05%
same,Percent of isomer in FaSSGF,"[3]; simulated gastric fluid, 0.5 h",89.07%
same,Percent of isomer in FaSSGF,"[3]; simulated gastric fluid, 4 h",73.47%
same,Percent of isomer in FaSSIF,[3]; [7],83.49%
same,Percent of isomer in FaSSIF,[3]; [8],72.21%
same,Percent of isomer in FaSSIF,"[3]; simulated intestinal fluid, 4 h, listed as Cis",54.87%
same,Percent of isomer in FaSSIF,"[3]; simulated intestinal fluid, 4 h, listed as cis",~55%
Oc1cc(CNC(=S)/C=C/c2ccc(O)c(O)c2Br)cc(O)c1O [trans isomer],conversion of the trans isomer to the cis isomer (1H-NMR),[4],significant conversion
same,conversion of the trans isomer to the cis isomer,[5],conversion of the trans isomer to the cis isomer
same,% cis,[6]; 0 hours,0%
same,% trans,[6]; 0 hours,100%
same,% trans,[6]; 1 hour,50.5%
same,% cis,[6]; 2 hours,64% and 63.7%
same,% trans,[6]; 2 hours,36.3%
same,% cis,[6]; 4 hours,87.7%
same,% trans,[6]; 4 hours,12.3%
same,% trans,[6]; 5 hours,8.5%
same,% cis,[6]; 6 hours,92.1%
same,% trans,[6]; 6 hours,7.9%
same,Maximum evaporation rate (bound water),[1],12%/min
same,Maximum evaporation rate (free water),[1],23 %/min
same,Temperature of mid evaporation (free water),[1],87 °C
same,Maximum evaporation rate (free water),[1]; listed as Trans isomer,23%/min
same,logP at 24 h,physchem,0.86
same,Percent of isomer in FaSSGF,"[3]; simulated gastric fluid, 0 h",100%
same,Percent of isomer in FaSSGF,"[3]; simulated gastric fluid, 0.5 h",100%
same,Percent of isomer in FaSSGF,"[3]; simulated gastric fluid, 4 h",100%
same,stability in FaSSGF,"[3]; simulated gastric fluid, up to 4 h",completely stable
same,reduction of concentration in FaSSIF,"[3]; simulated intestinal fluid, 0 to 4 h",~7%
same,Percent of isomer in FaSSIF,[3]; [7],98.15%
same,Percent of isomer in FaSSIF,[3]; [8],96.25%
same,Percent of isomer in FaSSIF,"[3]; simulated intestinal fluid, 4 h",90.98%
